Test results published in patent US5814631A, “Quinazoline derivatives and applications thereof” (Suntory Limited, priority 1995, dated 1998).

Biological target: T1, human heart chymase (Homo sapiens, UniProt P23946)
T1 sequence (P23946 22-247): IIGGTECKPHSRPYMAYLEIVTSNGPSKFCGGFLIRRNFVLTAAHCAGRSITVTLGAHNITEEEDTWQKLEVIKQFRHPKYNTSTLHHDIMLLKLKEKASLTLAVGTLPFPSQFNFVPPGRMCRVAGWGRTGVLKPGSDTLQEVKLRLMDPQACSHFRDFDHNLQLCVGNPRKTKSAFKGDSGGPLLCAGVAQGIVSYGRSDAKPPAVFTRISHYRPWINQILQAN
Assay: biochemical
Settings: Chymase inhibitive activity (IC50), Ang I substrate, 37° C., 30 min, pH 7.5
Procedure: That is, to 10 μl of a 20 mM trisphosphate buffer (pH 7.5) containing 2MKCl were added 10 μl of purified chymase and 5 μl of a dimethylsulfoxide (hereinafter referred to as DMSO) solution of the test sample. The mixture was preincubated at 37° C. for 10 minutes, then 25 μl of a 1 mM Ang I solution was added and the mixture preincubated at 37° C. for 30 minutes. Next, 50 μl of 30% acetic acid was added to stop the enzymatic reaction. At the same time, a blind test was performed by adding, instead of the test sample solution, 5 μl of DMSO and performing the same reaction.
The reacted solution was subjected to high performance liquid chromatography using Develosil ODS-5 (made by Nomura Kagaku, .phi.4.6 mm×150 mm) and developed at a flow rate of 2.0 ml/min in 0.05% TFA by a straight concentration gradient raising the acetonitrile from 0% to 60% over 10 minutes. This was monitored by the absorbance at 210 nm and the peaks identified by comparison with standard samples of Ang I and Ang II. The peak areas were measured by an integrating meter to quantitatively analyze the Ang I and Ang II and calculate the chymase activity.

Row | IC50 [nM] | Structure (SMILES)
1 | 63 | O=C(Cn1c(=O)n(S(=O)(=O)c2ccc(Cl)cc2)c(=O)c2ccc(Cl)cc21)Nc1ccccc1 [Example 38, [7-chloro-3-(4-chlorobenzenesulfonyl)-2,4(1H,3H)-quinazolinedion-1-yl]-N-phenylacetamide]
2 | 65 | O=C(Cn1c(=O)n(S(=O)(=O)c2ccc(Cl)cc2)c(=O)c2ccc(Cl)cc21)Nc1ccc(O)cc1 [Example 39, [7-chloro-3-(4-chlorobenzenesulfonyl)-2,4(1H,3H)-quinazolinedion-1-yl]-N-(4-hydroxyphenyl)acetamide]
3 | 110 | O=C(Cn1c(=O)n(S(=O)(=O)c2ccc(Cl)cc2)c(=O)c2ccc(Cl)cc21)Nc1cccc(O)c1 [Example 40, [7-chloro-3-(4-chlorobenzenesulfonyl)-2,4(1H,3H)-quinazolinedion-1-yl]-N-(3-hydroxyphenyl)acetamide]
4 | 310 | O=C(Cn1c(=O)n(S(=O)(=O)c2ccc(Cl)cc2)c(=O)c2ccc(Cl)cc21)Nc1ccccc1O [Example 41, [7-chloro-3-(4-chlorobenzenesulfonyl)-2,4(1H,3H)-quinazolinedion-1-yl]-N-(2-hydroxyphenyl)acetamide]
5 | 420 | O=C(Cn1c(=O)n(S(=O)(=O)c2ccc(Cl)cc2)c(=O)c2ccc(Cl)cc21)Nc1ccc(C(=O)O)cc1 [Example 43, [7-chloro-3-(4-chlorobenzenesulfonyl)-2,4(1H,3H)-quinazolinedion-1-yl]-N-(4-carboxyphenyl)-acetamide]
6 | 560 | O=C(Cn1c(=O)n(S(=O)(=O)c2ccc(Cl)cc2)c(=O)c2ccc(Cl)cc21)Nc1ccc(CN2CCOCC2)cc1 [Example 44, [7-chloro-3-(4-chlorobenzenesulfonyl)-2,4(1H,3H)-quinazolinedion-1-yl]-N-(4-morpholinomethylphenyl)acetamide]
7 | 320 | NCc1ccc(NC(=O)Cn2c(=O)n(S(=O)(=O)c3ccc(Cl)cc3)c(=O)c3ccc(Cl)cc32)cc1 [Example 46, [7-chloro-3-(4-chlorobenzenesulfonyl)-2,4(1H,3H)-quinazolinedion-1-yl]-N-(4-aminomethylphenyl)acetamide]
8 | 500 | N[C@@H](CC(=O)O)C(=O)NCc1ccc(NC(=O)Cn2c(=O)n(S(=O)(=O)c3ccc(Cl)cc3)c(=O)c3ccc(Cl)cc32)cc1 [Example 48, [7-chloro-3-(4-chlorobenzenesulfonyl)-2,4(1H,3H)-quinazolinedion-1-yl]-N-(4-α-L-aspartylaminomethylphenyl)acetamide]
9 | 330 | N[C@@H](CC(=O)NCc1ccc(NC(=O)Cn2c(=O)n(S(=O)(=O)c3ccc(Cl)cc3)c(=O)c3ccc(Cl)cc32)cc1)C(=O)O [Example 50, [7-chloro-3-(4-chlorobenzenesulfonyl)-2,4(1H,3H)-quinazolinedion-1-yl]-N-(4-β-L-aspartylaminomethylphenyl)acetamide]
10 | 110 | N[C@@H](CC(=O)NCc1cccc(NC(=O)Cn2c(=O)n(S(=O)(=O)c3ccc(Cl)cc3)c(=O)c3ccc(Cl)cc32)c1)C(=O)O [Example 52, [7-chloro-3-(4-chlorobenzenesulfonyl)-2,4(1H,3H)-quinazolinedion-1-yl]-N-(3-β-L-aspartylaminomethylphenyl)acetamide]
11 | 50 | O=C(Cn1c(=O)n(S(=O)(=O)c2ccc(Cl)cc2)c(=O)c2ccc(Cl)cc21)Nc1cccnc1 [Example 53, [7-chloro-3-(4-chlorobenzenesulfonyl)-2,4(1H,3H)-quinazolinedion-1-yl]-N-(3-pyridyl)acetamide]
12 | 34 | O=C(Cn1c(=O)n(S(=O)(=O)c2ccc(Cl)cc2)c(=O)c2ccc(Cl)cc21)Nc1ccncc1 [Example 54, [7-chloro-3-(4-chlorobenzenesulfonyl)-2,4(1H,3H)-quinazolinedion-1-yl]-N-(4-pyridyl)acetamide]
13 | 72 | O=C(Cn1c(=O)n(S(=O)(=O)c2ccc(Cl)cc2)c(=O)c2ccc(Cl)cc21)Nc1ccccn1 [Example 55, [7-chloro-3-(4-chlorobenzenesulfonyl)-2,4(1H,3H)-quinazolinedion-1-yl]-N-(2-pyridyl)acetamide]
14 | 31 | CC[n+]1cccc(NC(=O)Cn2c(=O)n(S(=O)(=O)c3ccc(Cl)cc3)c(=O)c3ccc(Cl)cc32)c1 [Example 56, 3-{[7-chloro-3-(4-chlorobenzenesulfonyl)-2,4(1H,3H)-quinazolinedion-1-yl]acetylamino}-N-ethylpyridinium iodide]
15 | 130 | C[n+]1ccc(NC(=O)Cn2c(=O)n(S(=O)(=O)c3ccc(Cl)cc3)c(=O)c3ccc(Cl)cc32)cc1 [Example 58, 4-{[7-chloro-3-(4-chlorobenzenesulfonyl)-2,4(1H,3H)-quinazolinedion-1-yl]acetylamino}-N-methylpyridinium iodide]
16 | 370 | O=c1c2ccc(Cl)cc2n(Cc2ccccc2)c(=O)n1S(=O)(=O)c1ccc(Cl)cc1 [Example 59, 1-benzyl-7-chloro-3-(4-chlorobenzenesulfonyl)-2,4(1H,3H )-quinazolinedione]
17 | 340 | N#Cc1ccc(Cn2c(=O)n(S(=O)(=O)c3ccc(Cl)cc3)c(=O)c3ccc(Cl)cc32)cc1 [Example 60, 7-chloro-3-(4-chlorobenzenesulfonyl)-1-(4-cyanobenzyl)-2,4(1H,3H)-quinazolinedione]
18 | 160 | N#Cc1cccc(Cn2c(=O)n(S(=O)(=O)c3ccc(Cl)cc3)c(=O)c3ccc(Cl)cc32)c1 [Example 61, 7-chloro-3-(4-chlorobenzenesulfonyl)-1-(3-cyanobenzyl)-2,4(1H,3H)-quinazolinedione]
19 | 240 | O=C(O)c1cccc(Cn2c(=O)n(S(=O)(=O)c3ccc(Cl)cc3)c(=O)c3ccc(Cl)cc32)c1 [Example 66, 1-(3-carboxybenzyl)-7-chloro-3-(4-chlorobenzenesulfonyl)-2,4(1H,3H)-quinazolinedione]
20 | 110 | O=C(Nc1cccnc1)c1cccc(Cn2c(=O)n(S(=O)(=O)c3ccc(Cl)cc3)c(=O)c3ccc(Cl)cc32)c1 [Example 68, 7-chloro-3-(4-chlorobenzenesulfonyl)-1-(3-(3-pyridyl)aminocarbonyl-benzyl)-2,4(1H,3H)-quinazolinedione]
21 | 230 | O=C(O)CNC(=O)c1cccc(Cn2c(=O)n(S(=O)(=O)c3ccc(Cl)cc3)c(=O)c3ccc(Cl)cc32)c1 [Example 70, 3-(7-chloro-3-(4-chlorobenzenesulfonyl)-2,4(1H,3H)-quinazolinedion-1-yl)methylbenzoylglycine]
22 | 2300 | O=C(O)CCC(=O)Nc1ccc(Cn2c(=O)n(S(=O)(=O)c3ccc(Cl)cc3)c(=O)c3ccc(Cl)cc32)cc1 [Example 73]
23 | 180 | Nc1ccccc1Cn1c(=O)n(S(=O)(=O)c2ccc(Cl)cc2)c(=O)c2ccc(Cl)cc21 [Example 75, 1-(2-aminobenzyl)-7-chloro-3-(4-chlorobenzenesulfonyl)-2,4(1H,3H)-quinazolinedione]
24 | 140 | O=C(Cn1c(=O)n(S(=O)(=O)c2ccc(Cl)cc2)c(=O)c2ccc(Cl)cc21)NCc1ccccc1 [Example 80, [7-chloro-3-(4-chlorobenzenesulfonyl)-2,4(1H,3H)-quinazolinedion-1-yl]-N-benzylacetamide]
25 | 220 | O=C(Cn1c(=O)n(S(=O)(=O)c2ccc(Cl)cc2)c(=O)c2ccc(Cl)cc21)NCc1ccncc1 [Example 81, [7-chloro-3-(4-chlorobenzenesulfonyl)-2,4 (1H,3H)-quinazolinedion-1-yl]-N-(4-picolyl)acetamide]
